Data: patent US8114850B2, “Antiproliferative activity of G-rich oligonucleotides and method of using same to bind to nucleolin” (Advanced Cancer Therapeutics, LLC, priority 1999, dated 2012)

Tests used:
[1] = tested on: U937 cells; experiment: MTT dose dependence, leukemic cell line U937; assay type: cell-based; details: FIG. 3
Text: (§1) FIG. 3: MTT assays showing the dose dependence of growth modulation by GR029A for leukemic cell lines, U937 and […], and a non-malignant mouse hematopoietic stem cell line (ATCC 2037).

[2] = tested on: HS27 cells; experiment: MTT cell growth assay, non-malignant HS27 cells; assay type: cell-based; details: compared to most malignant cell lines; FIG. 2
Experimental: (§2) Cells were plated at low density ([…] cells per well, depending on cell line) in the appropriate serum-supplemented medium in 96-well plates (one plate per MTT assay time point) and grown under standard conditions of cell culture. The following day (day 1) oligonucleotide, or water as control, was added to the culture medium to give a final concentration of 15 uM. Further oligonucleotide, equivalent to half the initial dose, was added to the culture medium on days two, three and four.
(§3) Cells were assayed using the MTT assay (Morgan (1998) Methods. Mol. Biol. 79, 179-183) on days one, three, five, seven and nine after plating. The culture medium was not changed throughout the duration of the experiment (which was the time required for untreated cells to grow to confluence). Experiments were performed in triplicate and bars represent the standard error of the data.

[3] = tested on: hematopoietic stem cell line (ATCC 2037); experiment: MTT dose dependence, non-malignant hematopoietic stem cell line; assay type: cell-based, mouse; details: FIG. 3
Text: as §1

[4] = target: T1, TEL-binding protein (GRO-binding protein/nucleolin, MDA-MB-231 nuclear extracts) (Homo sapiens, UniProt P19338); experiment: Competitive EMSA, labeled TEL and MDA-MB-231 nuclear extracts; details: 10 nM unlabeled oligonucleotide; labeled TEL, MDA-MB-231 nuclear extracts
T1 construct: Nuclear and cytoplasmic extracts from MDA-MB-231 cells were prepared using the protocol described in F. M. Ausubel et al; endogenous in cells; host or cells: MDA-MB-231 nuclear extract, prepared in house

[5] = tested on: MCF-7 cells; experiment: MTT cell growth assay, MCF-7 cells; assay type: cell-based, human; details: 15 uM on day 1, half the initial dose on days 2-4; 3′-propylamino oligonucleotides; vs water control; FIG. 1D
Experimental: as §2, §3

[6] = tested on: K562 cells; experiment: MTT dose dependence, leukemic cell line K562; assay type: cell-based; details: FIG. 3
Text: as §1

[7] = tested on: MDA-MB-231 breast cancer cells; experiment: MTT cell growth assay, MDA-MB-231 cells; assay type: cell-based, human; details: for growth of MDA-MB-231 cells (MTT): 15 uM on day 1, half the initial dose on days 2-4, 3′-propylamino oligonucleotides, vs water control, FIG. 1B
Experimental: Cells were plated at low density ([…] cells per well, depending on cell line) in the appropriate serum-supplemented medium in 96-well plates (one plate per MTT assay time point) and grown under standard conditions of cell culture. The following day (day 1) oligonucleotide, or water as control, was added to the culture medium to give a final concentration of 15 uM. Further oligonucleotide, equivalent to half the initial dose, was added to the culture medium on days two, three and four. Cells were assayed using the MTT assay (Morgan (1998) Methods. Mol. Biol. 79, 179-183) on days one, three, five, seven and nine after plating. The culture medium was not changed throughout the duration of the experiment (which was the time required for untreated cells to grow to confluence). Experiments were performed in triplicate and bars represent the standard error of the data. For the experiment shown in FIG. 7A, MDA-MB-231 breast cancer cells (5×10^2 cells per well) were plated in a 96-well plate. After twenty-four hours, a single dose of oligonucleotide, or equal volume of PBS as a control, was added to the culture medium to a final concentration of 10 uM. Viable cells were assessed seven days after plating using the MTT assay. For the experiment using 3′-unmodified oligonucleotides (FIG. 7D), serum-supplemented medium was replaced by serum-free medium containing oligonucleotide (or serum-free medium alone in control wells). After incubation at 37° C. for four hours, fetal calf serum (Life Technologies, Inc.) was added to the medium to give 10% v/v.

[8] = tested on: MDA-MB-231 breast cancer cells; experiment: Chemotherapeutic agent and GRO combination, MTT assay; assay type: cell-based, human; details: cisplatin 0.5 µg/ml, GR029A 8 uM added after two hours, MTT after six days
Experimental: Cisplatin (in 1% DMSO solution to give a final concentration of […]) was added to the medium of MDA-MB-231 breast cancer cells growing in culture. After two hours, GR029A (in PBS solution to give a final concentration of 8 uM) was added to the medium. After six days, the relative number of viable cells was determined using the MTT assay. Cells treated with GR029A alone received an appropriate volume of 1% DMSO in place of cisplatin. Cells treated with cisplatin alone received an appropriate volume of PBS in place of GR029A.

T1 sequence (P19338 whole entry): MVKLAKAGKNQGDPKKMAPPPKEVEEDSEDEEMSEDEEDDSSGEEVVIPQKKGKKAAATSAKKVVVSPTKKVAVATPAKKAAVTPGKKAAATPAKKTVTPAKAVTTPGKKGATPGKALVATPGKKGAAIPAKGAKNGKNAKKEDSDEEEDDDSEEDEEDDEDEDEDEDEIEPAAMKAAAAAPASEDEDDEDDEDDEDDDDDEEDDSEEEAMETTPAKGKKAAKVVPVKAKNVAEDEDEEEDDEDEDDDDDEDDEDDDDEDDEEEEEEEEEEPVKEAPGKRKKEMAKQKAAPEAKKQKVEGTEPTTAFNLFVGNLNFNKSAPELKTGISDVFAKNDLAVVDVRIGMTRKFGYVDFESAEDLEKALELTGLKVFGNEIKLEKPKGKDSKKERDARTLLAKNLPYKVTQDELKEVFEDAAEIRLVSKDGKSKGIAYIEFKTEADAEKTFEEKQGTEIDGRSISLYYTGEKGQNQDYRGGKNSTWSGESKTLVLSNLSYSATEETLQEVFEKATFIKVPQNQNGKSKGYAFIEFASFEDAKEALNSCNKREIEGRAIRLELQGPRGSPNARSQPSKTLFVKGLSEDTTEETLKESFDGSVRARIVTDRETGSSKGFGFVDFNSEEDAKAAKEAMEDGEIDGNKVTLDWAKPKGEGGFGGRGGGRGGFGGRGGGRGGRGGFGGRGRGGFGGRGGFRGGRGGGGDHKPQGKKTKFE

5′-TTTGGTGGTGGTGG TTGTGGTGGTGGTGG-3′ [GR029A]
antiproliferative effect, U937 leukemia cells [1]: antiproliferative effects
growth modulatory effect on non-malignant HS27 cells [2]: lesser growth modulatory effect
growth modulatory effect, non-malignant hematopoietic stem cell line (ATCC 2037) [3]: lesser growth modulatory effect
competition for protein binding in competitive EMSA [4]: competed strongly
growth of MCF-7 cells (MTT) [5]: modulated proliferation
antiproliferative effect, K562 leukemia cells [6]: antiproliferative effects
growth of MDA-MB-231 cells (MTT) [7]: modulated proliferation
antiproliferative activity, MDA-MB-231 ([7]; single 10 uM dose, FIG. 7A): active
growth modulation [8]: 5%

5′-GTTGTTTGG GGTGGT-3′ (GTTGTTTGGGGTGGT; DNA, backbone not given here; further chemistry not fully specified) [GRO15A]
growth of MCF-7 cells (MTT) [5]: modulated proliferation
growth of MDA-MB-231 cells (MTT) [7]: modulated proliferation
